In patent publication US6686343B1, “Triazolopurine derivatives, pharmaceutical compositions containing the derivatives, and adenosine A3 receptor affinitive agents” (Otsuka Pharmaceutical Factory, Inc., priority 1999, dated 2004) one finds melting point data, which are given here for 44 compounds.

SMILES strings stand for the structures.

The term melting point denotes the temperature of the solid-liquid transition. As for `CCOP(=O)(Cc1nc2nc[nH]c2c2nc(-c3ccc(-c4ccccc4)cc3)nn12)OCC`, the melting point is 188 to 192 °C.
The result for `CCOP(=O)(CCc1nc2nc[nH]c2c2nc(-c3ccc(-c4ccccc4)cc3)nn12)OCC` reads no less than 110 °C.
The result for `CCOP(=O)(Cc1nc2nc[nH]c2c2nc(-c3ccc(C(C)(C)C)cc3)nn12)OCC` reads 162 to 166 °C; that for `CCOP(=O)(Cc1nc2nc[nH]c2c2nc(-c3ccc(C(F)(F)F)cc3)nn12)OCC`, 196 to 198 °C.
The result for `CCOP(=O)(CCCc1nc2nc[nH]c2c2nc(-c3ccc(-c4ccccc4)cc3)nn12)OCC` reads 175 to 178 °C; that for `CCOP(=O)(O)Cc1nc2nc[nH]c2c2nc(-c3ccc(C(F)(F)F)cc3)nn12`, 268 to 270 °C; that for `CCOP(=O)(O)Cc1nc2nc[nH]c2c2nc(-c3ccc(-c4ccccc4)cc3)nn12`, 274 to 277 °C.
`COCCc1nc2nc[nH]c2c2nc(-c3ccccc3)nn12` (hydrate or solvate) [Example 13, 5-(2-methoxyethyl)-8-phenyl-1H-1,2,4-triazolo[5,1-i]purine] came in with a melting point of 217.5 to 218.5 °C.
`COCc1nc2nc[nH]c2c2nc(-c3ccc(-c4ccccc4)cc3)nn12` [Example 2, 8-(4-biphenylyl)-5-methoxymethyl-1H-1,2,4-triazolo[5,1-i]purine] registered a melting point of no less than 280 °C.
For the compound `CSCCc1nc2nc[nH]c2c2nc(-c3ccc(-c4ccccc4)cc3)nn12` [Example 4, 8-(4-biphenylyl)-5-(2-methylthioethyl)-1H-1,2,4-triazolo[5,1-i]purine], the melting point was 249 to 251 °C.
For the compound `CCOCc1nc2nc[nH]c2c2nc(-c3cc(OC)c(OC)c(OC)c3)nn12` [Example 5, 5-ethoxymethyl-8-(3,4,5-trimethoxyphenyl)-1H-1,2,4-triazolo[5,1-i]purine], the melting point lay in the range of 254 to 255.5 °C.
For `COCc1nc2nc[nH]c2c2nc(-c3cc(OC)c(OC)c(OC)c3)nn12` [Example 6, 5-methoxymethyl-8-(3,4,5-trimethoxyphenyl)-1H-1,2,4-triazolo[5,1-i]purine], the melting point was no less than 280 °C.
Turning to `CCCOc1ccc(-c2nc3c4[nH]cnc4nc(COCC)n3n2)cc1` [Example 8, 5-ethoxymethyl-8-(4-n-propoxyphenyl)-1H-1,2,4-triazolo[5,1-i]purine], the melting point lay within 262 to 263 °C.
`CCCOc1ccc(-c2nc3c4[nH]cnc4nc(COC)n3n2)cc1` [Example 9, 5-methoxymethyl-8-(4-n-propoxyphenyl)-1H-1,2,4-triazolo[5,1-i]purine] gave a melting point of no less than 280 °C.
The result for `CCCOc1ccc(-c2nc3c4[nH]cnc4nc(CCOC)n3n2)cc1` [Example 10, 5-(2-methoxyethyl)-8-(4-n-propoxyphenyl)-1H-1,2,4-triazolo[5,1-i]purine] reads 231.5 to 232.5 °C; that for `CCOCc1nc2nc[nH]c2c2nc(-c3ccccc3)nn12` [Example 11, 5-ethoxymethyl-8-phenyl-1H-1,2,4-triazolo[5,1-i]purine], 247 to 249 °C.
The result for `COCc1nc2nc[nH]c2c2nc(-c3ccccc3)nn12` [Example 12, 5-methoxymethyl-8-phenyl-1H-1,2,4-triazolo[5,1-i]purine] reads no less than 280 °C.
In the case of `CCOCc1nc2nc[nH]c2c2nc(-c3ccc(C(C)(C)C)cc3)nn12` [Example 14, 8-(4-t-butylphenyl)-5-ethoxymethyl-1H-1,2,4-triazolo[5,1-i]purine], the melting point fell in the range of 243 to 244 °C.
In turn, `COCc1nc2nc[nH]c2c2nc(-c3ccc(C(C)(C)C)cc3)nn12` [Example 15, 8-(4-t-butylphenyl)-5-methoxymethyl-1H-1,2,4-triazolo[5,1-i]purine] had a melting point of no less than 280 °C.
Next, `COCCc1nc2nc[nH]c2c2nc(-c3ccc(C(C)(C)C)cc3)nn12` [Example 16, 8-(4-t-butylphenyl)-5-(2-methoxyethyl)-1H-1,2,4-triazolo[5,1-i]purine]: 237 to 239 °C.
As to `CSCCc1nc2nc[nH]c2c2nc(-c3ccc(C(C)(C)C)cc3)nn12` [Example 17, 8-(4-t-butylphenyl)-5-(2-methylthioethyl)-1H-1,2,4-triazolo[5,1-i]purine], the melting point lay in the range of 229 to 231 °C.
Take `COC(=O)CCCc1nc2nc[nH]c2c2nc(-c3ccccc3)nn12` [Example 18, 5-(3-methoxycarbonylpropyl)-8-phenyl-1H-1,2,4-triazolo[5,1-i]purine]: the melting point fell in the range of 228 to 230 °C.
The compound `COc1cc(-c2nc3c4[nH]cnc4nc(CCSC)n3n2)cc(OC)c1OC` [Example 19, 5-(2-methylthioethyl)-8-(3,4,5-trimethoxyphenyl)-1H-1,2,4-triazolo[5,1-i]purine] came in with a melting point of 233 to 234 °C.
The result for `CCOC(=O)CCc1nc2nc[nH]c2c2nc(-c3ccc(-c4ccccc4)cc3)nn12` [Example 20, 8-(4-biphenylyl)-5-(2-ethoxycarbonylethyl)-1H-1,2,4-triazolo[5,1-i]purine] reads 241.5 to 244 °C; that for `COC(=O)CCCc1nc2nc[nH]c2c2nc(-c3ccc(-c4ccccc4)cc3)nn12` [Example 21, 8-(4-biphenylyl)-5-(3-methoxycarbonylpropyl)-1H-1,2,4-triazolo[5,1-i]purine], 243 to 245.5 °C; that for `CCOC(=O)CCCCc1nc2nc[nH]c2c2nc(-c3ccc(-c4ccccc4)cc3)nn12` [Example 22, 8-(4-biphenylyl)-5-(4-ethoxycarbonylbutyl)-1H-1,2,4-triazolo[5,1-i]purine], 241 to 243 °C.
The result for `COC(=O)CCCc1nc2nc[nH]c2c2nc(-c3ccc(C(C)(C)C)cc3)nn12` [Example 23, 8-(4-t-butylphenyl)-5-(3-methoxycarbonylpropyl)-1H-1,2,4-triazolo[5,1-i]purine] reads 169 to 172.5 °C; that for `COCc1nc2nc[nH]c2c2nc(-c3ccc(C(F)(F)F)cc3)nn12` [Example 24, 5-methoxymethyl-8-(4-trifluoromethylphenyl)-1H-1,2,4-triazolo[5,1-i]purine], no less than 280 °C; that for `CCOCc1nc2nc[nH]c2c2nc(-c3ccc(C(F)(F)F)cc3)nn12` [Example 25, 5-ethoxymethyl-8-(4-trifluoromethylphenyl)-1H-1,2,4-triazolo[5,1-i]purine], no less than 280 °C.
The result for `COCCc1nc2nc[nH]c2c2nc(-c3ccc(C(F)(F)F)cc3)nn12` [Example 26, 5-(2-methoxyethyl)-8-(4-trifluoromethylphenyl)-1H-1,2,4-triazolo[5,1-i]purine] reads ≥ 256 °C (dec.); that for `CSCCc1nc2nc[nH]c2c2nc(-c3ccc(C(F)(F)F)cc3)nn12` [Example 27, 5-(2-methylthioethyl)-8-(4-trifluoromethylphenyl)-1H-1,2,4-triazolo[5,1-i]purine], ≥ 255 °C (dec.); that for `COCCc1nc2nc[nH]c2c2nc(-c3ccc(Cl)cc3)nn12` [Example 28, 8-(4-chlorophenyl)-5-(2-methoxyethyl)-1H-1,2,4-triazolo[5,1-i]purine], ≥ 278 °C (dec.).
As for `CSCCc1nc2nc[nH]c2c2nc(-c3ccc(Cl)cc3)nn12` [Example 29, 8-(4-chlorophenyl)-5-(2-methylthioethyl)-1H-1,2,4-triazolo[5,1-i]purine], the melting point was ≥ 257 °C (dec.).
Compound `COC(=O)CCCc1nc2nc[nH]c2c2nc(-c3ccc(Cl)cc3)nn12` [Example 30, 8-(4-chlorophenyl)-5-(3-methoxycarbonylpropyl)-1H-1,2,4-triazolo[5,1-i]purine] yielded a melting point of 261 to 262.5 °C.
With `CC(C)(C)c1ccc(-c2nc3c4[nH]cnc4nc(CCCC(=O)O)n3n2)cc1` [Example 35, 8-(4-t-butylphenyl)-5-(3-carboxypropyl)-1H-1,2,4-triazolo[5,1-i]purine], the melting point is no less than 280 °C.
The result for `C[S+]([O-])CCc1nc2nc[nH]c2c2nc(-c3ccc(Cl)cc3)nn12` (centres unmarked) [Example 38, 8-(4-chlorophenyl)-5-(2-methylsulfinylethyl)-1H-1,2,4-triazolo[5,1-i]purine] reads ≥ 218 °C (dec.).
The result for `C[S+]([O-])CCc1nc2nc[nH]c2c2nc(-c3ccc(C(C)(C)C)cc3)nn12` (centres unmarked) [Example 39, 8-(4-t-butylphenyl)-5-(2-methylsulfinylethyl)-1H-1,2,4-triazolo[5,1-i]purine] reads ≥ 162 °C (dec.); that for `C[S+]([O-])CCc1nc2nc[nH]c2c2nc(-c3ccc(C(F)(F)F)cc3)nn12` (centres unmarked) [Example 40, 5-(2-methylsulfinylethyl)-8-(4-trifluoromethylphenyl)-1H-1,2,4-triazolo[5,1-i]purine], ≥ 203 °C (dec.); that for `CS(=O)(=O)CCc1nc2nc[nH]c2c2nc(-c3ccc(Cl)cc3)nn12` [Example 42, 8-(4-chlorophenyl)-5-(2-methylsulfonylethyl)-1H-1,2,4-triazolo[5,1-i]purine], ≥ 244 °C (dec.).
As to `CC(C)(C)c1ccc(-c2nc3c4[nH]cnc4nc(CCS(C)(=O)=O)n3n2)cc1` [Example 43, 8-(4-t-butylphenyl)-5-(2-methylsulfonylethyl)-1H-1,2,4-triazolo[5,1-i]purine], the melting point is ≥ 201 °C (dec.).
`CS(=O)(=O)CCc1nc2nc[nH]c2c2nc(-c3ccc(C(F)(F)F)cc3)nn12` [Example 44, 5-(2-methylsulfonylethyl)-8-(4-trifluoromethylphenyl)-1H-1,2,4-triazolo[5,1-i]purine]: the melting point is ≥ 261 °C (dec.).
Next, `c1ccc(-c2ccc(-c3nc4c5[nH]cnc5nc(C5CCCCC5)n4n3)cc2)cc1` [Example 45, 8-(4-biphenylyl)-5-cyclohexyl-1H-1,2,4-triazolo[5,1-i]purine]: no less than 280 °C; `c1ccc(-c2ccc(-c3nc4c5[nH]cnc5nc(C5CCCC5)n4n3)cc2)cc1` [Example 46, 8-(4-biphenylyl)-5-cyclopentyl-1H-1,2,4-triazolo[5,1-i]purine]: no less than 280 °C.
Next, `FC(F)(F)c1nc2nc[nH]c2c2nc(-c3ccc(-c4ccccc4)cc3)nn12` [Example 47, 8-(4-biphenylyl)-5-trifluoromethyl-1H-1,2,4-triazolo[5,1-i]purine]: no less than 280 °C.
